Experiments:
[1] = target: PHD1 (EGLN2) (Homo sapiens (Human), UniProt Q96KS0); assay: HIF-PH assay (14CO2 capture), PHD1 enzyme inhibition; type: biochemical; details: Table 1; for IC50: individual measurement, read-out: IC50 (μM) PHD1; for PHD2/PHD1: ratio of the IC50 of the compound for each enzyme
[2] = target: PHD2 (EGLN1) (Homo sapiens (Human), UniProt Q9GZT9); assay: HIF-PH assay (14CO2 capture), PHD2 enzyme inhibition; type: biochemical; details: Table 1; individual measurement; read-out: IC50 (μM) PHD2
Sequence of PHD2 (EGLN1) (Q9GZT9 whole entry): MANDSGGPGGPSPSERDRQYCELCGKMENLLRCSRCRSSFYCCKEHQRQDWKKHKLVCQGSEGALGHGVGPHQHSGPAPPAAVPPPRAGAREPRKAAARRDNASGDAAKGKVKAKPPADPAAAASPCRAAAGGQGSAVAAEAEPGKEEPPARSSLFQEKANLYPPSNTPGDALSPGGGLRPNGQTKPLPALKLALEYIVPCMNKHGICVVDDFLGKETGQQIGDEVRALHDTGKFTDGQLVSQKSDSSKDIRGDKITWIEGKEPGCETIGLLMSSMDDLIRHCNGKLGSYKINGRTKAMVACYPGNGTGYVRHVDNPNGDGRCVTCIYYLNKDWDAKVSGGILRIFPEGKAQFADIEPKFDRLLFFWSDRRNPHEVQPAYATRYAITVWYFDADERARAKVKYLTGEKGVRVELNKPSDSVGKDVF

Sequence of PHD1 (EGLN2) (Q96KS0 whole entry): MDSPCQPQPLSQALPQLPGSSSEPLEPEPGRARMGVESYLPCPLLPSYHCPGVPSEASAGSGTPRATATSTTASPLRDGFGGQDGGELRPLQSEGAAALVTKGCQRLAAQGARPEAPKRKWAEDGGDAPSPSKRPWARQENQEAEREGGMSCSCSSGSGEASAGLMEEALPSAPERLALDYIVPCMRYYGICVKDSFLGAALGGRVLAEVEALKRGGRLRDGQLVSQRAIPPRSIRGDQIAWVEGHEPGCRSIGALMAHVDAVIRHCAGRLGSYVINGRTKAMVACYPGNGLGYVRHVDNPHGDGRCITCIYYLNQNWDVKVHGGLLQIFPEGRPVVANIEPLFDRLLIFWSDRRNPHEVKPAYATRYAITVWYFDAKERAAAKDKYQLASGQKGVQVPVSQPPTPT

Row | SMILES | IC50 [1] [µM] | PHD2/PHD1 [1] | IC50 [2] [µM]
1 | Cc1nc(C(=O)NCCC(=O)O)c(O)c2ccc(Oc3ccccc3)cc12 [Compound 108, 3-[(4-Hydroxy-1-methyl-7-phenoxy-isoquinoline-3-carbonyl)-amino]-propionic acid] | 29 | 7 | 200
2 | Cc1cccc(C)c1Oc1ccc2c(C#N)nc(C(=O)NCCC(=O)O)c(O)c2c1 [Compound 109, 3{-[1-Cyano-6-(2,6-dimethyl-phenoxy)-4-hydroxy-isoquinoline-3-carbonyl]-amino}-propionic acid] | 6.4 | 5 | 30.4
3 | Cc1cccc(C)c1Oc1ccc2c(C#N)nc(C(=O)NCCCC(=O)O)c(O)c2c1 [Compound 110, 4-{[1-Cyano-6-(2,6-dimethyl-phenoxy)-4-hydroxy-isoquinoline-3-carbonyl]-amino}-butyric acid] | 3.63 | 6 | 21.3
4 | Cc1cccc(C)c1Oc1ccc2c(C#N)nc(C(=O)NCCCCC(=O)O)c(O)c2c1 [Compound 111, 5-{[1-Cyano-6-(2,6-dimethyl-phenoxy)-4-hydroxy-isoquinoline-3-carbonyl]-amino}-pentanoic acid] | 10.5 | 11 | 112
5 | O=C(O)CCNC(=O)c1ncc2ccc(Oc3ccccc3)cc2c1O [Compound 112, 3-[(4-Hydroxy-6-phenoxy-isoquinoline-3-carbonyl)-amino]-propionic acid] | 23.7 | 8 | 200
6 | O=C(O)CCCNC(=O)c1ncc2ccc(Oc3ccccc3)cc2c1O [Compound 113, 4-[(4-Hydroxy-6-phenoxy-isoquinoline-3-carbonyl)-amino]-butyric acid] | 21.2 | 9 | 200
7 | O=C(O)CCCCNC(=O)c1ncc2cc(Sc3ccccc3)ccc2c1O [Compound 114, 5-[(4-Hydroxy-7-phenylsulfanyl-isoquinoline-3-carbonyl)-amino]-pentanoic acid] | 13.5 | 6 | 86.6
8 | O=C(O)CCCNC(=O)c1ncc2cc(Sc3ccccc3)ccc2c1O [Compound 115, 4-[(4-Hydroxy-7-phenylsulfanyl-isoquinoline-3-carbonyl)-amino]-butyric acid] | 1.41 | 11 | 14.8
9 | O=C(O)CCNC(=O)c1ncc2cc(NC(=O)Nc3ccccc3)ccc2c1O [Compound 116, 3-{[4-Hydroxy-7-(3-phenyl-ureido)-isoquinoline-3-carbonyl]-amino}-propionic acid] | 3.34 | 9 | 29.2
10 | O=C(Nc1ccccc1)Nc1ccc2c(O)c(C(=O)NC[C@H](O)C(=O)O)ncc2c1 [Compound 117, (S)-2-Hydroxy-3-{[4-hydroxy-7-(3-phenyl-ureido)-isoquinoline-3-carbonyl]-amino}-propionic acid] | 4.66 | 11 | 51.4
11 | O=C(O)CCNC(=O)c1ncc2cc(NC(=O)c3ccc(F)cc3)ccc2c1O [Compound 118, 3-{[7-(4-Fluoro-benzoylamino)-4-hydroxy-isoquinoline-3-carbonyl]-amino}-propionic acid] | 6.45 | 18 | 113
12 | O=C(O)CCCNC(=O)c1ncc2cc(NC(=O)Nc3ccccc3)ccc2c1O [Compound 119, 4-{[4-Hydroxy-7-(3-phenyl-ureido)-isoquinoline-3-carbonyl]-amino}-butyric acid] | 12.6 | 6 | 72.3
13 | O=C(O)CCCNC(=O)c1ncc2cc(NC(=O)c3ccc(F)cc3)ccc2c1O [Compound 120, 4-{[7-(4-Fluoro-benzoylamino)-4-hydroxy-isoquinoline-3-carbonyl]-amino}-butyric acid] | 12.4 | 16 | 200
14 | CC(C)(CNC(=O)c1nc(C#N)c2cc(Sc3ccccc3)ccc2c1O)C(=O)O [Compound 121, 3-[(1-Cyano-4-hydroxy-7-phenylsulfanyl-isoquinoline-3-carbonyl)-amino]-2,2-dimethyl-propionic acid] | 0.84 | 10 | 8.18
15 | CC(C)(CNC(=O)c1nc(C#N)c2cc(CCc3ccccc3)ccc2c1O)C(=O)O [Compound 122, 3-[(1-Cyano-4-hydroxy-7-phenethyl-isoquinoline-3-carbonyl)-amino]-2,2-dimethyl-propionic acid] | 2.57 | 11 | 29.3
16 | CC(C)(CNC(=O)c1nc(C#N)c2ccc(Oc3ccccc3)cc2c1O)C(=O)O [Compound 123, 3-[(1-Cyano-4-hydroxy-6-phenoxy-isoquinoline-3-carbonyl)-amino]-2,2-dimethyl-propionic acid] | 6.11 | 30 | 183
17 | O=C(O)CCCCNC(=O)c1ncc2cc(Nc3ccccc3)ccc2c1O [Compound 124, 5-[(4-Hydroxy-7-phenylamino-isoquinoline-3-carbonyl)-amino]-pentanoic acid] | 25.4 | 8 | 200

Row | SMILES | IC50 [1] [µM] | PHD2/PHD1 [1] | IC50 [2] [µM]
18 | COc1ccc(CNc2ccc3c(O)c(C(=O)NCCCCC(=O)O)ncc3c2)cc1 [Compound 125, 5-{[4-Hydroxy-7-(4-methoxy-benzylamino)-isoquinoline-3-carbonyl]-amino}-pentanoic acid] | 7.92 | 20 | 158
19 | COc1ccc(CNc2ccc3c(O)c(C(=O)NCC(C)(C)C(=O)O)ncc3c2)cc1 [Compound 126, 3-{[4-Hydroxy-7-(4-methoxy-benzylamino)-isoquinoline-3-carbonyl]-amino}-2,2-dimethyl-propionic acid] | 34 | 6 | 200
20 | CC(C)(CNC(=O)c1ncc2cc(Sc3ccccc3)ccc2c1O)C(=O)O [Compound 127, 3-[(4-Hydroxy-7-phenylsulfanyl-isoquinoline-3-carbonyl)-amino]-2,2-dimethyl-propionic acid] | 7.69 | 8 | 63.1
21 | N#Cc1nc(C(=O)NCCCCC(=O)O)c(O)c2cc(Oc3ccccc3)ccc12 [Compound 128, 5-[(1-Cyano-4-hydroxy-6-phenoxy-isoquinoline-3-carbonyl)-amino]-pentanoic acid] | 8.99 | 7 | 65.2
22 | CC(C)(CNC(=O)c1ncc2cc(-c3ccccc3)ccc2c1O)C(=O)O [Compound 129, 3-[(4-Hydroxy-7-phenyl-isoquinoline-3-carbonyl)-amino]-2,2-dimethyl-propionic acid] | 25.3 | 7 | 180
23 | O=C(O)CCNC(=O)c1ncc2cc(NC(=O)NC3CCCCC3)ccc2c1O [Compound 130, 3-{[7-(3-Cyclohexyl-ureido)-4-hydroxy-isoquinoline-3-carbonyl]-amino}-propionic acid] | 4.91 | 8 | 39.6
24 | O=C(O)CCCNC(=O)c1ncc2cc(NC(=O)NC3CCCCC3)ccc2c1O [Compound 131, 4-{[7-(3-Cyclohexyl-ureido)-4-hydroxy-isoquinoline-3-carbonyl]-amino}-butyric acid] | 3.16 | 25 | 77.6
25 | O=C(O)CCNC(=O)c1ncc2cc(-c3ccc(F)cc3)ccc2c1O [Compound 132, 3-{[7-(4-Fluoro-phenyl)-4-hydroxy-isoquinoline-3-carbonyl]-amino}-propionic acid] | 2.38 | 12 | 27.6
26 | O=C(O)CCNC(=O)c1ncc2cc(NC(=O)NCc3ccccc3)ccc2c1O [Compound 133, 3-{[7-(3-Benzyl-ureido)-4-hydroxy-isoquinoline-3-carbonyl]-amino}-propionic acid] | 0.85 | 7 | 6.06
27 | O=C(O)CCCNC(=O)c1ncc2cc(NC(=O)NCc3ccccc3)ccc2c1O [Compound 134, 4-{[7-(3-Benzyl-ureido)-4-hydroxy-isoquinoline-3-carbonyl]-amino}-butyric acid] | 2.15 | 6 | 13.4
28 | O=C(O)CCNC(=O)c1ncc2cc(S(=O)(=O)C3CCCCC3)ccc2c1O [Compound 135, 3-[(7-Cyclohexanesulfonyl-4-hydroxy-isoquinoline-3-carbonyl)-amino]-propionic acid] | 0.35 | 8 | 2.88
29 | CC(C)(CNC(=O)c1nc(-c2cncc(F)c2)c2cc(Oc3ccccc3)ccc2c1O)C(=O)O [Compound 136, 3-{[1-(5-Fluoro-pyridin-3-yl)-4-hydroxy-7-phenoxy-isoquinoline-3-carbonyl]-amino}-2,2-dimethyl-propionic acid] | 7.21 | 28 | 200
30 | N#Cc1nc(C(=O)NCCC(=O)O)c(O)c2ccc(-c3ccccc3)cc12 [Compound 137, 3-[(1-Cyano-4-hydroxy-7-phenyl-isoquinoline-3-carbonyl)-amino]-propionic acid] | 0.61 | 6 | 3.67
31 | CC(C)(CNC(=O)c1nc(C#N)c2cc(-c3ccccc3)ccc2c1O)C(=O)O [Compound 138, 3-[(1-Cyano-4-hydroxy-7-phenyl-isoquinoline-3-carbonyl)-amino]-2,2-dimethyl-propionic acid] | 1.13 | 21 | 24.1
32 | CC(C)(CNC(=O)c1nc(C#N)c2cc(NC(=O)c3ccc(F)cc3)ccc2c1O)C(=O)O [Compound 139, 3-{[1-cyano-7-(4-Fluoro-benzoylamino)-4-hydroxy-isoquinoline-3-carbonyl]-amino}-2,2-dimethyl-propionic acid] | 5.65 | 35 | 200
33 | CC(C)(CNC(=O)c1nc(C#N)c2cc(NC(=O)Nc3ccccc3)ccc2c1O)C(=O)O [Compound 140, 3{-[1-Cyano-4-hydroxy-7-(3-phenyl-ureido)-isoquinoline-3-carbonyl]-amino}-2,2-dimethyl-propionic acid] | 2.81 | 12 | 33.5
